Test system: hMLH1 expression (methylation-silenced hMLH1 promoter) in HEK293T cells
Test: hMLH1 mRNA levels by TaqMan qRT-PCR in transfected HEK293T cells
Format: cell-based, human
Settings: for hMLH1 activation, comparison in words (direct dCas9 fusions vs Casilio-ME): same combination of sgRNAs; for hMLH1 expression, fold over background (change in mRNA levels): sgRNAs 3+7, 60 hours post-transfection, GAPDH control; for stimulation of TET1(CD) mediated hMLH1 activation by GADD45A PUFc fusions: co-expressed with PUFa-TET1(CD), gRNAs-PBSac
Method: To test the system, HEK293T cells were transfected with Casilio-ME components including Ct or Nt-fusion TET1-effector and a combination of 3 or 2 sgRNAs. Relative levels of hMLH1 mRNA were determined in TaqMan assays by using RNA extracted from cells 60 hours post-transfection and GAPDH as endogenous control for normalization of qRT-PCR measurements.
Cell culture and transfection. HEK293T cells were cultivated in Dulbecco's modified Eagle's medium (DMEM)(Sigma) with 10% fetal bovine serum (FBS)(Lonza), 4% Glutamax (Gibco), 1% Sodium Pyruvate (Gibco) and penicillin-streptomycin (Gibco) in an incubator set to 37° C. and 5% CO2. When indicated cells were treated with 2.5 μM or 5 μM 5-Azacytidine (sigma) as indicated with a daily change of medium containing freshly diluted drug. Cells were seeded into 12-well plates at 150,000 cells per well the day before being transfected with 100 ng of dCas9 construct, 100 ng of modified sgRNA construct and 200 ng of PUF-fusion with Attractene transfection reagent according to manufacturer's instructions (Qiagen). In dCas9-direct fusion experiments, cells were transfected with 200 ng dCas9-fusion constructs and 200 ng of modified sgRNA constructs. Transfected cells were harvested 60 hours after transfection, or otherwise indicated, and cell pellets were used for extractions of RNA, genomic DNA and protein.
Quantitative RT-PCR analysis. Cells were harvested, washed with Dulbecco's phosphate-buffered saline (dPBS), centrifuged at 125×g for 5 min and then the flash-frozen pellets were stored at −80° C. RNA was extracted using RNeasy Plus Mini Kit according to the manufacturer's instructions (Qiagen). cDNA libraries were made using Applied Biosystems High Capacity RNA-to-cDNA kit with 200 ng to 1 μg of RNA. TaqMan gene expression assays (Applied Biosystems) were designed using GAPDH (Hs03929097, VIC) as endogenous control and hMLH1 (Hs00179866, FAM) as target. TaqMan Universal Master Mix II, with UNG (Applied Biosystems) was used for Quantitative PCR (qPCR), with 2 μl of diluted cDNA used for each reaction. Activation was analyzed with the Applied Biosystems ViiA7 instrument. Gene expression levels were calculated by “delta delta Ct” algorithm and normalized to control samples.
HEK293T cells were cultivated in Dulbecco's modified Eagle's medium (DMEM) (Sigma) with 10% fetal bovine serum (FBS) (Lonza), 4% Glutamax (Gibco), 1% Sodium Pyruvate (Gibco) and penicillin-streptomycin (Gibco) in an incubator set to 37° C. and 5% CO2. Cells were seeded into 12-well plates at 150,000 cells per well the day before being transfected with 100 ng of dCas9 construct, 100 ng of modified sgRNA construct and 200 ng of PUF-fusion with Attractene transfection reagent according to manufacturer's instructions (Qiagen). Transfected cells were harvested 3 days after transfection, or otherwise indicated, and cell pellets were used for RNA extractions.
Cells were harvested, washed with Dulbecco's phosphate-buffered saline (dPBS), centrifuged at 125×g for 5 min and then the flash-frozen pellets were stored at −80° C. RNA was extracted using RNeasy Plus Mini Kit according to the manufacturer's instructions (Qiagen). cDNA libraries were made using Applied Biosystems High Capacity RNA-to-cDNA kit with 200 ng to 2 μg of RNA. TaqMan gene expression assays (Applied Biosystems) were designed using GAPDH (Hs03929097, VIC) as endogenous control and hMLH1 (Hs00179866, FAM) as target. TaqMan Universal Master Mix II, with UNG (Applied Biosystems) was used for Quantitative PCR (qPCR), with 2 μl of diluted cDNA used for each reaction. Activation was analyzed with the Applied Biosystems ViiA7 instrument. Gene expression levels were calculated by “delta delta Ct” algorithm and normalized to control samples.

## TET1(CD)-dCas9: direct N-terminal fusion of TET1(CD) to dCas9; SEQ ID NO:52
HEK293T
  hMLH1 activation, comparison in words (direct dCas9 fusions vs Casilio-ME): much weaker activation than its respective C-terminal fusion

## dCas9-TET1(CD): direct C-terminal fusion of TET1(CD) to dCas9; SEQ ID NO:53
HEK293T
  hMLH1 activation, comparison in words (direct dCas9 fusions vs Casilio-ME): relatively weak activation
  hMLH1 expression, fold over background (change in mRNA levels): 19 fold
HEK293T, same sgRNA combination
  hMLH1 activation relative to dCas9-p65HSF1: at best twice the activity obtained with transcription activator dCas9 fusion
Same sgRNAs combination, parallel experiment
  hMLH1 activation as share of activation obtained using Casilio-ME: about 14%

B1: PUFa-GADD45A-TET1(CD): GADD45A between PUFa and TET1(CD); SEQ ID NO:105 (protein)
chain: MIDGGGGSDPKKKRKVDPKKKRKVDPKKKRKVGSTGSRNDGGGGSGGGGSGGGGSGRAGILPPKKKRKVSRGRSRLLEDFRNNRYPNLQLREIAGHIMEFSQDQHGSRFIQLKLERATPAERQLVFNEILQAAYQLMVDVFGNYVIQKFFEFGSLEQKLALAERIRGHVLSLALQMYGSRVIEKALEFIPSDQQNEMVRELDGHVLKCVKDQNGNHVVQKCIECVQPQSLQFIIDAFKGQVFALSTHPYGCRVIQRILEHCLPDQTLPILEELHQHTEQLVQDQYGNYVIQHVLEHGRPEDKSKIVAEIRGNVLVLSQHKFASNVVEKCVTHASRTERAVLIDEVCTMNDGPHSALYTMMKDQYANYVVQKMIDVAEPGQRKIVMHKIRPHIATLRKYTYGKHILAKLEKYYMKNGVDLGDPKKKRKVDPKKKRKVGGRGGGSGGGSGGGSGGGSGGGSGGGSLTLEEFSAGEQKTERMDKVGDALEEVLSKALSQRTITVGVYEAAKLLNVDPDNVVLCLLAADEDDDRDVALQIHFTLIQAFCCENDINILRVSNPGRLAELLLLETDAGPAASEGAEQPPDLHCVLVTNPHSSQWKDPALSQLICFCRESRYMDQWVPVINLPERSRGRGGGGSGGGGSGGGGSGPAELPTCSCLDRVIQKDKGPYYTHLGAGPSVAAVREIMENRYGQKGNAIRIEIVVYTGKEGKSSHGCPIAKWVLRRSSDEEKVLCLVRQRTGHHCPTAVMVVLIMVWDGIPLPMADRLYTELTENLKSYNGHPTDRRCTLNENRTCTCQGIDPETCGASFSFGCSWSMYFNGCKFGRSPSPRRFRIDPSSPLHEKNLEDNLQSLATRLAPIYKQYAPVAYQNQVEYENVARECRLGSKEGRPFSGVTACLDFCAHPHRDIHNMNNGSTVVCTLTREDNRSLGVIPQDEQLHVLPLYKLSDTDEFGSKEGMEAKIKSGAIEVLAPRRKKRTCFTQPVPRSGKKRAAMMTEVLAHKIRAVEKKPIPRIKRKNNSTTTNNSKPSSLPTLGSNTETVQPEVKSETEPHFILKSSDNTKTYSLMPSAPHPVKEASPGFSWSPKTASATPAPLKNDATASCGFSERSSTPHCTMPSGRLSGANAAAADGPGISQLGEVAPLPTLSAPVMEPLINSEPSTGVTEPLTPHQPNHQPSFLTSPQDLASSPMEEDEQHSEADEPPSDEPLSDDPLSPAEEKLPHIDEYWSDSEHIFLDANIGGVAIAPAHGSVLIECARRELHATTPVEHPNRNHPTRLSLVFYQHKNLNKPQHGFELNKIKFEAKEAKNKKMKASEQKDQAANEGPEQSSEVNELNQIPSHKALTLTHDNVVTVSPYALTHVAGPYNHWVID
GADD45A two-in-one effectors, HEK293T, TaqMan
  enhancement of hMLH1 expression relative to PUFa-TET1(CD) alone: 4 fold

B2: GADD45A-PUFc: SEQ ID NO:107 (protein)
chain: MTLEEFSAGEQKTERMDKVGDALEEVLSKALSQRTITVGVYEAAKLLNVDPDNVVLCLLAADEDDDRDVALQIHFTLIQAFCCENDINILRVSNPGRLAELLLLETDAGPAASEGAEQPPDLHCVLVTNPHSSQWKDPALSQLICFCRESRYMDQWVPVINLPERSRYPYDVPDYAIDGGGGSDPKKKRKVDPKKKRKVDPKKKRKVGSTGSRNDGGGGSGGGGSGGGGSGRAGILPPKKKRKVSRGRSRLLEDFRNNRYPNLQLREIAGHIMEFSQDQHGSRFIQLKLERATPAERQLVFNEILQAAYQLMVDVFGNYVIQKFFEFGSLEQKLALAERIRGHVLSLALQMYGSRVIEKALEFIPSDQQNEMVRELDGHVLKCVKDQNGNHVVQKCIECVQPQSLQFIIDAFKGQVFALSTHPYGCRVIQRILEHCLPDQTLPILEELHQHTEQLVQDQYGSYVIEHVLEHGRPEDKSKIVAEIRGNVLVLSQHKFANNVVQKCVTHASRTERAVLIDEVCTMNDGPHSALYTMMKDQYANYVVQKMIDVAEPGQRKIVMHKIRPHIATLRKYTYGKHILAKLEKYYMKNGVDLGDPKKKRKVDPKKKRKVGGRGGGGSGGGGSGGGGSGPA
  stimulation of TET1(CD) mediated hMLH1 activation by GADD45A PUFc fusions: higher activity compared to PUFc-GADD45A fusions

B3: PUFc-GADD45A: SEQ ID NO:106 (protein)
chain: MIDGGGGSDPKKKRKVDPKKKRKVDPKKKRKVGSTGSRNDGGGGSGGGGSGGGGSGRAGILPPKKKRKVSRGRSRLLEDFRNNRYPNLQLREIAGHIMEFSQDQHGSRFIQLKLERATPAERQLVFNEILQAAYQLMVDVFGNYVIQKFFEFGSLEQKLALAERIRGHVLSLALQMYGSRVIEKALEFIPSDQQNEMVRELDGHVLKCVKDQNGNHVVQKCIECVQPQSLQFIIDAFKGQVFALSTHPYGCRVIQRILEHCLPDQTLPILEELHQHTEQLVQDQYGSYVIEHVLEHGRPEDKSKIVAEIRGNVLVLSQHKFANNVVQKCVTHASRTERAVLIDEVCTMNDGPHSALYTMMKDQYANYVVQKMIDVAEPGQRKIVMHKIRPHIATLRKYTYGKHILAKLEKYYMKNGVDLGDPKKKRKVDPKKKRKVGGRGGGGSGGGGSGGGGSGPALTLEEFSAGEQKTERMDKVGDALEEVLSKALSQRTITVGVYEAAKLLNVDPDNVVLCLLAADEDDDRDVALQIHFTLIQAFCCENDINILRVSNPGRLAELLLLETDAGPAASEGAEQPPDLHCVLVTNPHSSQWKDPALSQLICFCRESRYMDQWVPVINLPERSRYPYDVPDYA
  stimulation of TET1(CD) mediated hMLH1 activation by GADD45A PUFc fusions: significant stimulation of the TET1(CD) mediated hMLH1 activation

B4: TET1(CD)-PUFa: TET1 catalytic domain fused to N-terminus of PUFa; SEQ ID NO:54 (protein)
chain: MGPAELPTCSCLDRVIQKDKGPYYTHLGAGPSVAAVREIMENRYGQKGNAIRIEIVVYTGKEGKSSHGCPIAKWVLRRSSDEEKVLCLVRQRTGHHCPTAVMVVLIMVWDGIPLPMADRLYTELTENLKSYNGHPTDRRCTLNENRTCTCQGIDPETCGASFSFGCSWSMYFNGCKFGRSPSPRRFRIDPSSPLHEKNLEDNLQSLATRLAPIYKQYAPVAYQNQVEYENVARECRLGSKEGRPFSGVTACLDFCAHPHRDIHNMNNGSTVVCTLTREDNRSLGVIPQDEQLHVLPLYKLSDTDEFGSKEGMEAKIKSGAIEVLAPRRKKRTCFTQPVPRSGKKRAAMMTEVLAHKIRAVEKKPIPRIKRKNNSTTTNNSKPSSLPTLGSNTETVQPEVKSETEPHFILKSSDNTKTYSLMPSAPHPVKEASPGFSWSPKTASATPAPLKNDATASCGFSERSSTPHCTMPSGRLSGANAAAADGPGISQLGEVAPLPTLSAPVMEPLINSEPSTGVTEPLTPHQPNHQPSFLTSPQDLASSPMEEDEQHSEADEPPSDEPLSDDPLSPAEEKLPHIDEYWSDSEHIFLDANIGGVAIAPAHGSVLIECARRELHATTPVEHPNRNHPTRLSLVFYQHKNLNKPQHGFELNKIKFEAKEAKNKKMKASEQKDQAANEGPEQSSEVNELNQIPSHKALTLTHDNVVTVSPYALTHVAGPYNHWVIDGGGGSDPKKKRKVDPKKKRKVDPKKKRKVGSTGSRNDGGGGSGGGGSGGGGSGRAGILPPKKKRKVSRGRSRLLEDFRNNRYPNLQLREIAGHIMEFSQDQHGSRFIQLKLERATPAERQLVFNEILQAAYQLMVDVFGNYVIQKFFEFGSLEQKLALAERIRGHVLSLALQMYGSRVIEKALEFIPSDQQNEMVRELDGHVLKCVKDQNGNHVVQKCIECVQPQSLQFIIDAFKGQVFALSTHPYGCRVIQRILEHCLPDQTLPILEELHQHTEQLVQDQYGNYVIQHVLEHGRPEDKSKIVAEIRGNVLVLSQHKFASNVVEKCVTHASRTERAVLIDEVCTMNDGPHSALYTMMKDQYANYVVQKMIDVAEPGQRKIVMHKIRPHIATLRKYTYGKHILAKLEKYYMKNGVDLGDPKKKRKVDPKKKRKVGGRGGGGSGGGGSGGGGSGPA
HEK293T
  hMLH1 expression, fold over background (change in mRNA levels): ≤ 20 fold

Source: US20190218261A1, “TARGETED ENHANCED DNA DEMETHYLATION” (The Jackson Laboratory, priority 2016, published 2019)
